The source of these data is patent US20150011466A1, “APJ Receptor Compounds” (priority 2012, published 2015).

Series [1] deals with T1, APJ receptor (Homo sapiens, UniProt P35414).
T1 construct: expressed in transfected cells; host or cells: Human TRex cells (doxycycline-inducible)
T1 sequence (P35414 1-380): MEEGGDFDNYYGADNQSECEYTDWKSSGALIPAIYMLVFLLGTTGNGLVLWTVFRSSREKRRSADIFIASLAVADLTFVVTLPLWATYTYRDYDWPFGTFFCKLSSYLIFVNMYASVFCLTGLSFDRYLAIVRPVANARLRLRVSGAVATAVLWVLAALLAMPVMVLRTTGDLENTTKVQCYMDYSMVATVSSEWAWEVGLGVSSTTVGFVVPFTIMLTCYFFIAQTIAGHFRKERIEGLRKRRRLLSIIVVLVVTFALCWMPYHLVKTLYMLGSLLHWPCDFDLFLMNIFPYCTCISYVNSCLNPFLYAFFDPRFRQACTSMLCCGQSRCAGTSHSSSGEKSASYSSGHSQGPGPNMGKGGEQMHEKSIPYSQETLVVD
The series is described as follows: HTRF cAMP assay, inhibition of NKH477 stimulated cAMP in Human TRex cells expressing APJ upon doxycycline induction (APJ-hTREX). It is filed as cell-based. Particulars: for Ranking: class combining EC50 and % histamine; for percent intrinsic activity at 0.3 µM: read-out: % IA (@ 300 nM). In short, it runs like this: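 Cells stimulated with NKH477 and cAMP measured by HTRF competitive immunoassay (cryptate anti-cAMP antibody, d2-labeled cAMP). APJ-hTREX cells induced with […] doxycycline and seeded overnight at 40 k/well.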
In general terms: Time-resolved FRET reads energy transfer from a long-lived donor to a nearby acceptor.

The nature of series [2]: Histimine (% vs. 48/40).
Where [3] appears, read: inhibition of NKH477 stimulated cAMP, APJ-hTREX cells, read-out: APJ-hTREX EC50.

pEC50: −log10 of the molar value. Read-outs that look alike come from different tables or passages of the source. Where a SMILES comes first, the peptide text is derived from it. [ ]: non-standard residue; d: D form. The star is where a group is joined. Palmitoyl = CCCCCCCCCCCCCCCC(=O)*; Aib = CC(C)(N)C(=O)O

One may read the pEC50 as −log10 of the EC50, conventionally taken in molar units. For `CCCCCCCCCCCCCCCC(=O)N[C@H](C(=O)N[C@H](C(=O)N[C@@H](Cc1ccccc1)C(=O)N[C@@H](CCCNC(=N)N)C(=O)N[C@@H](CO)C(=O)N[C@@H](CO)C(=O)N[C@@H](CCC(=O)O)C(=O)N1CCC[C@H]1C(=O)N[C@@H](CCCNC(=N)N)C(=O)N[C@@H](CCCNC(=N)N)C(=O)N[C@@H](CO)C(=O)N[C@@H](C)C(=O)N[C@@H](CC(=O)O)C(=O)N[C@H](C(=O)N[C@@H](Cc1ccccc1)C(=O)N[C@H](C(N)=O)[C@@H](C)CC)[C@@H](C)CC)C(C)C)[C@@H](C)O` [Compound 48] (Palmitoyl-TVFRSSEPRRSADIFI-NH2; C-terminus assumed), in series [1], the Ranking entry was “* (EC50>500 nM and % histamine>35%)”; the percent intrinsic activity at 0.3 µM was determined as 78%. Also, the pEC50 in series [1] (setting [3]) is 5.47. Moreover, in series [2], the “Histimine (% vs. 48/40)” value is given as 5%.

For `CCCCCCCCCCCCCCCC(=O)N[C@H](C(=O)N[C@H](C(=O)N[C@@H](Cc1ccccc1)C(=O)N[C@@H](CCCNC(=N)N)C(=O)N[C@@H](CO)C(=O)N[C@@H](CO)C(=O)N[C@@H](CCC(=O)O)C(=O)N[C@H](CCCCN)C(=O)N[C@@H](CCCNC(=N)N)C(=O)N1CCC[C@H]1C(=O)N[C@@H](CO)C(=O)N[C@@H](C)C(=O)N[C@@H](CC(=O)O)C(=O)N[C@H](C(=O)N[C@@H](Cc1ccccc1)C(=O)N[C@H](C(N)=O)[C@@H](C)CC)[C@@H](C)CC)C(C)C)[C@@H](C)O` [Compound 50] (Palmitoyl-TVFRSSE[dK]RPSADIFI-NH2), the percent intrinsic activity at 0.3 µM in series [1] stood at 41%. In series [2], the “Histimine (% vs. 48/40)” value is recorded as 16%.

For the compound `CCCCCCCCCCCCCCCC(=O)N[C@H](C(=O)N[C@H](C(=O)N[C@@H](Cc1ccccc1)C(=O)N[C@@H](CCCNC(=N)N)C(=O)N[C@@H](CO)C(=O)N[C@@H](CO)C(=O)N[C@@H](CCC(=O)O)C(=O)N[C@H](CCCCN)C(=O)N[C@@H](CCCNC(=N)N)C(=O)N[C@@H](CCCNC(=N)N)C(=O)N1CCC[C@H]1C(=O)N[C@@H](C)C(=O)N[C@@H](CC(=O)O)C(=O)N[C@H](C(=O)N[C@@H](Cc1ccccc1)C(=O)N[C@H](C(N)=O)[C@@H](C)CC)[C@@H](C)CC)C(C)C)[C@@H](C)O` [Compound 51] (Palmitoyl-TVFRSSE[dK]RRPADIFI-NH2), the percent intrinsic activity at 0.3 µM in series [1] came to 60%. In series [2], the “Histimine (% vs. 48/40)” value was determined as 63%.

As to `CCCCCCCCCCCCCCCC(=O)N[C@H](C(=O)N[C@H](C(=O)N[C@@H](Cc1ccccc1)C(=O)N[C@@H](CCCNC(=N)N)C(=O)N[C@@H](CO)C(=O)N[C@@H](CO)C(=O)N[C@@H](CCC(=O)O)C(=O)N[C@H](CCCCN)C(=O)N[C@@H](CCCNC(=N)N)C(=O)N[C@@H](CCCNC(=N)N)C(=O)N[C@@H](CO)C(=O)N1CCC[C@H]1C(=O)N[C@@H](CC(=O)O)C(=O)N[C@H](C(=O)N[C@@H](Cc1ccccc1)C(=O)N[C@H](C(N)=O)[C@@H](C)CC)[C@@H](C)CC)C(C)C)[C@@H](C)O` [Compound 52] (Palmitoyl-TVFRSSE[dK]RRSPDIFI-NH2), the percent intrinsic activity at 0.3 µM in series [1] came out at 45%. In addition, the “Histimine (% vs. 48/40)” value in series [2] is 75%.

`CCCCCCCCCCCCCCCC(=O)N[C@H](C(=O)N[C@H](C(=O)N[C@@H](Cc1ccccc1)C(=O)N[C@@H](CCCNC(=N)N)C(=O)N[C@@H](CO)C(=O)N[C@@H](CO)C(=O)N[C@@H](CCC(=O)O)C(=O)N[C@H](CCCCN)C(=O)N[C@@H](CCCNC(=N)N)C(=O)N[C@@H](CCCNC(=N)N)C(=O)N[C@@H](CO)C(=O)N[C@@H](C)C(=O)N1CCC[C@H]1C(=O)N[C@H](C(=O)N[C@@H](Cc1ccccc1)C(=O)N[C@H](C(N)=O)[C@@H](C)CC)[C@@H](C)CC)C(C)C)[C@@H](C)O` [Compound 53] (Palmitoyl-TVFRSSE[dK]RRSAPIFI-NH2): in series [1], the percent intrinsic activity at 0.3 µM worked out at 75%. Further, in series [2], the “Histimine (% vs. 48/40)” value is given as 115%.

In the case of `CCCCCCCCCCCCCCCC(=O)N[C@H](C(=O)N[C@H](C(=O)N[C@@H](Cc1ccccc1)C(=O)N[C@@H](CCCNC(=N)N)C(=O)N[C@@H](CO)C(=O)N[C@@H](CO)C(=O)N[C@@H](CCC(=O)O)C(=O)N[C@H](CCCCN)C(=O)N[C@@H](CCCNC(=N)N)C(=O)N[C@@H](CCCNC(=N)N)C(=O)N[C@@H](CO)C(=O)N[C@@H](C)C(=O)N[C@@H](CC(=O)O)C(=O)N1CCC[C@H]1C(=O)N[C@@H](Cc1ccccc1)C(=O)N[C@H](C(N)=O)[C@@H](C)CC)C(C)C)[C@@H](C)O` [Compound 54] (Palmitoyl-TVFRSSE[dK]RRSADPFI-NH2), the percent intrinsic activity at 0.3 µM in series [1] is 46%. In series [2], the “Histimine (% vs. 48/40)” value came out at 60%.

On to `CCCCCCCCCCCCCCCC(=O)N[C@H](C(=O)N[C@H](C(=O)N[C@@H](Cc1ccccc1)C(=O)N[C@@H](CCCNC(=N)N)C(=O)N[C@@H](CO)C(=O)N[C@@H](CO)C(=O)N[C@@H](CCC(=O)O)C(=O)N[C@H](CCCCN)C(=O)N[C@@H](CCCNC(=N)N)C(=O)N[C@@H](CCCNC(=N)N)C(=O)N[C@@H](CO)C(=O)N[C@@H](C)C(=O)N[C@@H](CC(=O)O)C(=O)N[C@H](C(=O)N1CCC[C@H]1C(=O)N[C@H](C(N)=O)[C@@H](C)CC)[C@@H](C)CC)C(C)C)[C@@H](C)O` [Compound 55] (Palmitoyl-TVFRSSE[dK]RRSADIPI-NH2), for which the percent intrinsic activity at 0.3 µM in series [1] came out at 43%. Also, in series [2], the “Histimine (% vs. 48/40)” value is listed as 33%.

As to `CCCCCCCCCCCCCCCC(=O)N[C@H](C(=O)N[C@H](C(=O)N[C@@H](Cc1ccccc1)C(=O)N[C@@H](CCCNC(=N)N)C(=O)N[C@@H](CO)C(=O)N[C@@H](CO)C(=O)N[C@@H](CCC(=O)O)C(=O)N[C@H](CCCCN)C(=O)N[C@@H](CCCNC(=N)N)C(=O)N[C@@H](CCCNC(=N)N)C(=O)N[C@@H](CO)C(=O)N[C@@H](C)C(=O)N[C@@H](CC(=O)O)C(=O)N[C@H](C(=O)N[C@@H](Cc1ccccc1)C(=O)N1CCC[C@H]1C(N)=O)[C@@H](C)CC)C(C)C)[C@@H](C)O` [Compound 56] (Palmitoyl-TVFRSSE[dK]RRSADIFP-NH2; C-terminus assumed), in series [1], the Ranking entry was “*** (EC50<100 nM and % histamine>35%)”; the percent intrinsic activity at 0.3 µM was 92%. In addition, the negative logarithm of the EC50 (pEC50) in series [1] (setting [3]) is 7.81. Further, in series [2], the “Histimine (% vs. 48/40)” value is 50%.

Regarding `CCCCCCCCCCCCCCCC(=O)N[C@H](C(=O)NC(C)(C)C(=O)N[C@@H](Cc1ccccc1)C(=O)N[C@@H](CCCNC(=N)N)C(=O)N[C@@H](CO)C(=O)N[C@@H](CO)C(=O)N[C@@H](CCC(=O)O)C(=O)N[C@H](CCCCN)C(=O)N[C@@H](CCCNC(=N)N)C(=O)N[C@@H](CCCNC(=N)N)C(=O)N[C@@H](CO)C(=O)N[C@@H](C)C(=O)N[C@@H](CC(=O)O)C(=O)N[C@H](C(=O)N[C@@H](Cc1ccccc1)C(=O)N[C@H](C(N)=O)[C@@H](C)CC)[C@@H](C)CC)[C@@H](C)O` [Compound 57] (Palmitoyl-T[Aib]FRSSE[dK]RRSADIFI-NH2; C-terminus assumed), in series [1], the pEC50 is 7.17; the Ranking entry is “*** (EC50<100 nM and % histamine>35%)”; the percent intrinsic activity at 0.3 µM was found to be 77%. In addition, the “Histimine (% vs. 48/40)” value in series [2] stood at 39%.
